Measurements as given in ChEMBL document CHEMBL3045332, “Synthesis of some new 2,6-disubstituted-3(2H)-pyridazinone derivatives and investigation of their analgesic, anti-inflammatory and antimicrobial activities” (Med Chem Res, 2013).
Values after ≈ are worked out from the molar mass of the structure shown.

Experiments:
[1] = tested on: Staphylococcus aureus; test: Antibacterial activity against methicillin-resistant Staphylococcus aureus clinical isolate after 24 hr by two-fold serial dilution method; type: functional
[2] = tested on: Staphylococcus aureus; test: Antibacterial activity against Staphylococcus aureus ATCC 29213 after 24 hr by two-fold serial dilution method; type: functional; conditions: ATCC 29213, 24 h
[3] = tested on: Mus musculus; test: Anti-inflammatory activity in Swiss albino Mus musculus (mouse) assessed as inhibition of carrageenan-induced paw edema at 100 mg/kg, po administered 60 min prior to crrageenan-challenge measured at 180 min relative to control; type: functional
[4] = tested on: Mus musculus; test: Anti-inflammatory activity in Swiss albino Mus musculus (mouse) assessed as inhibition of carrageenan-induced paw edema at 100 mg/kg, po administered 60 min prior to crrageenan-challenge measured at 360 min relative to control; type: functional
[5] = tested on: Pseudomonas aeruginosa; test: Antibacterial activity against Pseudomonas aeruginosa ATCC 27853 after 24 hr by two-fold serial dilution method; type: functional; conditions: ATCC 27853, 24 h
[6] = tested on: Mus musculus; test: Ulcerogenic activity in p-benzoquinone-challenged Swiss albino Mus musculus (mouse) at 100 mg/kg, po administered 60 min prior to p-benzoquinone-challenge by microscopic analysis; type: toxicity, organism-based; set-up: dose 100 mg/kg, route oral; conditions: in vivo, 1 h
[7] = tested on: Enterococcus faecalis; test: Antibacterial activity against Enterococcus faecalis clinical isolate after 24 hr by two-fold serial dilution method; type: functional
[8] = tested on: Escherichia coli; test: Antibacterial activity against Escherichia coli ATCC 25922 after 24 hr by two-fold serial dilution method; type: functional; conditions: ATCC 25922, 24 h
[9] = tested on: Escherichia coli; test: Antibacterial activity against Escherichia coli clinical isolate expressing extended spectrum beta-lactamase after 24 hr by two-fold serial dilution method; type: functional
[10] = tested on: Pichia kudriavzevii; test: Antifungal activity against Pichia kudriavzevii ATCC 6258 after 48 hr by two-fold serial dilution method; type: functional; conditions: ATCC 6258, 48 h
[11] = tested on: Pseudomonas aeruginosa; test: Antibacterial activity against Pseudomonas aeruginosa cloinical isolate after 24 hr by two-fold serial dilution method; type: functional
[12] = tested on: Mus musculus; test: Analgesic activity in Swiss albino Mus musculus (mouse) assessed as inhibition of p-benzoquinone-induced writhing at 100 mg/kg, po administered 60 min prior to p-benzoquinone-challenge measured up to 15 min relative to control; type: functional
[13] = tested on: Candida albicans; test: Antifungal activity against Candida albicans ATCC 10231 after 48 hr by two-fold serial dilution method; type: functional; conditions: ATCC 10231, 48 h
[14] = tested on: Mus musculus; test: Anti-inflammatory activity in Swiss albino Mus musculus (mouse) assessed as inhibition of carrageenan-induced paw edema at 100 mg/kg, po administered 60 min prior to crrageenan-challenge measured at 270 min relative to control; type: functional
[15] = tested on: Enterococcus faecalis; test: Antibacterial activity against Enterococcus faecalis ATCC 29212 after 24 hr by two-fold serial dilution method; type: functional; conditions: ATCC 29212, 24 h
[16] = tested on: Mus musculus; test: Anti-inflammatory activity in Swiss albino Mus musculus (mouse) assessed as inhibition of carrageenan-induced paw edema at 100 mg/kg, po administered 60 min prior to crrageenan-challenge measured at 90 min relative to control; type: functional
[17] = tested on: Mus musculus; test: Anti-inflammatory activity in Swiss albino Mus musculus (mouse) assessed as inhibition of carrageenan-induced paw edema at 10 mg/kg, po administered 60 min prior to crrageenan-challenge measured at 360 min relative to control; type: functional
[18] = tested on: Mus musculus; test: Anti-inflammatory activity in Swiss albino Mus musculus (mouse) assessed as inhibition of carrageenan-induced paw edema at 10 mg/kg, po administered 60 min prior to crrageenan-challenge measured at 90 min relative to control; type: functional
[19] = tested on: Mus musculus; test: Anti-inflammatory activity in Swiss albino Mus musculus (mouse) assessed as inhibition of carrageenan-induced paw edema at 10 mg/kg, po administered 60 min prior to crrageenan-challenge measured at 180 min relative to control; type: functional
[20] = tested on: Mus musculus; test: Anti-inflammatory activity in Swiss albino Mus musculus (mouse) assessed as inhibition of carrageenan-induced paw edema at 10 mg/kg, po administered 60 min prior to crrageenan-challenge measured at 270 min relative to control; type: functional

Structure (SMILES)	MIC [1] [µg/mL]	MIC [2] [µg/mL]	inhibition in vivo at 100 mg/kg [3] [%]	inhibition in vivo at 100 mg/kg [4] [%]	MIC [5] [µg/mL]	Activity [6]	MIC [7] [µg/mL]	MIC [8] [µg/mL]	MIC [9] [µg/mL]	MIC [10] [µg/mL]	MIC [11] [µg/mL]	inhibition in vivo at 100 mg/kg [12] [%]	MIC [13] [µg/mL]	inhibition in vivo at 100 mg/kg [14] [%]	MIC [15] [µg/mL]	inhibition in vivo at 100 mg/kg [16] [%]	inhibition in vivo at 10 mg/kg [17] [%]	inhibition in vivo at 10 mg/kg [18] [%]	inhibition in vivo at 10 mg/kg [19] [%]	inhibition in vivo at 10 mg/kg [20] [%]
O=c1ccc(-c2ccc(Cl)cc2)nn1CCN1CCN(c2ccc(Cl)cc2)CC1	128 (≈ 298 µM)	64 (≈ 149 µM)	29.7	28.2	64 (≈ 149 µM)	Non-toxic	64 (≈ 149 µM)	64 (≈ 149 µM)	64 (≈ 149 µM)	32 (≈ 74.5 µM)	64 (≈ 149 µM)	53.2	32 (≈ 74.5 µM)	31	64 (≈ 149 µM)	20.6				
O=c1ccc(-c2ccc(Cl)cc2)nn1CCN1CCN(c2ccc(F)cc2)CC1	128 (≈ 310 µM)	64 (≈ 155 µM)	28.3	28.8	64 (≈ 155 µM)	Non-toxic	64 (≈ 155 µM)	64 (≈ 155 µM)	64 (≈ 155 µM)	32 (≈ 77.5 µM)	64 (≈ 155 µM)	57.5	32 (≈ 77.5 µM)	35.3	64 (≈ 155 µM)	29.5				
COc1ccc(N2CCN(CCn3nc(-c4ccc(Cl)cc4)ccc3=O)CC2)cc1	128 (≈ 301 µM)	64 (≈ 151 µM)	12.3	15.5	64 (≈ 151 µM)	Non-toxic	64 (≈ 151 µM)	64 (≈ 151 µM)	64 (≈ 151 µM)	32 (≈ 75.3 µM)	64 (≈ 151 µM)	30.2	32 (≈ 75.3 µM)	18.5	64 (≈ 151 µM)	4.7				
C[C@@H]1[C@H](O)[C@@H](C)/C=C/C=C/C=C/C=C/C=C/C=C/C=C/[C@H](O[C@@H]2O[C@H](C)[C@@H](O)[C@H](N)[C@@H]2O)C[C@@H]2O[C@](O)(C[C@@H](O)C[C@@H](O)[C@H](O)CC[C@@H](O)C[C@@H](O)CC(=O)O[C@H]1C)C[C@H](O)[C@H]2C(=O)O [AMPHOTERICIN B]										0.5 (≈ 0.541 µM)			< 0.25							
CC1(C)S[C@@H]2[C@H](NC(=O)[C@H](N)c3ccccc3)C(=O)N2[C@H]1C(=O)O [AMPICILLIN]	32 (≈ 91.6 µM)	2 (≈ 5.72 µM)					4 (≈ 11.4 µM)	8 (≈ 22.9 µM)	64 (≈ 183 µM)						2 (≈ 5.72 µM)					
CC(=O)Oc1ccccc1C(=O)O [ASPIRIN]						Toxic						45.9								
OC(Cn1cncn1)(Cn1cncn1)c1ccc(F)cc1F [FLUCONAZOLE]										64 (≈ 209 µM)			1 (≈ 3.27 µM)							
COc1ccc2c(c1)c(CC(=O)O)c(C)n2C(=O)c1ccc(Cl)cc1 [INDOMETHACIN]																	39.4	25.3	36.9	37.6
CC1COc2c(N3CCN(C)CC3)c(F)cc3c(=O)c(C(=O)O)cn1c23 (stereo not given) [OFLOXACIN]	2 (≈ 5.53 µM)	0.5 (≈ 1.38 µM)					2 (≈ 5.53 µM)		16 (≈ 44.3 µM)		32 (≈ 88.6 µM)				1 (≈ 2.77 µM)					
